# Reference: PubChem BioAssay AID1963964 (Molecular Pharmacology Branch, DTP, NCI, 2024)
# Tested on: 997726-040-R-J2-PDC tumor spheroids, viability
# Experiment: Anticancer human tumor 997726-040-R-J2-PDC patient-derived squamous cell lung carcinoma cell line growth inhibition [PI3K]
# Conditions: spheroids with HUVEC and MSC; for IC50: curve of first compound; for viability, T/C: stronger effect = lower value
# How it was run: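 Complex 3D spheroids (cancer cells + endothelial HUVEC + mesenchymal stem cells); drug pairs of targeted agent x inavolisib/alpelisib/duvelisib/copanlisib; half-log series from ~Cmax, max 10 microM if Cmax unknown; endpoint viability.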
# [1] = second compound 0.0316 µM, first compound 0.0316 µM
# [2] = second compound 0.0316 µM, first compound 0.1 µM
# [3] = second compound 0.0316 µM, first compound 0.316 µM
# [4] = second compound 0.0316 µM, first compound 1 µM
# [5] = second compound 0.0316 µM, first compound 3.16 µM
# [6] = second compound 0.0316 µM, first compound 10 µM
# [7] = second compound 0.1 µM, first compound 0.0316 µM
# [8] = second compound 0.1 µM, first compound 0.1 µM
# [9] = second compound 0.1 µM, first compound 0.316 µM
# [10] = second compound 0.1 µM, first compound 1 µM
# [11] = second compound 0.1 µM, first compound 3.16 µM
# [12] = second compound 0.1 µM, first compound 10 µM
# [13] = second compound 0.316 µM, first compound 0.0316 µM
# [14] = second compound 0.316 µM, first compound 0.1 µM
# [15] = second compound 0.316 µM, first compound 0.316 µM
# [16] = second compound 0.316 µM, first compound 1 µM
# [17] = second compound 0.316 µM, first compound 3.16 µM
# [18] = second compound 0.316 µM, first compound 10 µM
# [19] = second compound 1 µM, first compound 0.0316 µM
# [20] = second compound 1 µM, first compound 0.1 µM
# [21] = second compound 1 µM, first compound 0.316 µM
# [22] = second compound 1 µM, first compound 1 µM
# [23] = second compound 1 µM, first compound 3.16 µM
# [24] = second compound 1 µM, first compound 10 µM
# 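Note: spheroids exposed to compounds for seven days before readout.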
compound,measurement,setting,value
Cn1nccc1Nc1nccc(-c2ccn(C(CO)c3ccc(Cl)c(F)c3)c(=O)c2)n1 (centres undefined) + CC(Nc1ncnc2nc[nH]c12)c1cc2cccc(Cl)c2c(=O)n1-c1ccccc1,IC50,second compound 0.0316 µM,> 10 µM
same,IC50,second compound 0.1 µM,> 10 µM
same,IC50,second compound 0.316 µM,> 10 µM
same,IC50,second compound 1 µM,> 10 µM
same,IC50,second compound 3.16 µM,> 10 µM
same,IC50,second compound 10 µM,0.0708 µM
same,"viability, T/C",[1],93.3%
same,"viability, T/C",[2],81.7%
same,"viability, T/C",[3],77.2%
same,"viability, T/C",[4],69.3%
same,"viability, T/C",[5],64.2%
same,"viability, T/C",[6],59.5%
same,"viability, T/C",[7],91.6%
same,"viability, T/C",[8],90.1%
same,"viability, T/C",[9],73.9%
same,"viability, T/C",[10],69.4%
same,"viability, T/C",[11],62.5%
same,"viability, T/C",[12],61.8%
same,"viability, T/C",[13],89.6%
same,"viability, T/C",[14],93.7%
same,"viability, T/C",[15],74%
same,"viability, T/C",[16],57.2%
same,"viability, T/C",[17],64.3%
same,"viability, T/C",[18],62.4%
same,"viability, T/C",[19],96.5%
same,"viability, T/C",[20],77.6%
same,"viability, T/C",[21],74.2%
same,"viability, T/C",[22],67.6%
same,"viability, T/C",[23],58.8%
same,"viability, T/C",[24],60.2%
same,"viability, T/C","second compound 3.16 µM, first compound 0.0316 µM",73.9%
same,"viability, T/C","second compound 3.16 µM, first compound 0.1 µM",62.7%
same,"viability, T/C","second compound 3.16 µM, first compound 0.316 µM",61.6%
same,"viability, T/C","second compound 3.16 µM, first compound 1 µM",55.6%
same,"viability, T/C","second compound 3.16 µM, first compound 3.16 µM",57.8%
same,"viability, T/C","second compound 3.16 µM, first compound 10 µM",48.2%
same,"viability, T/C","second compound 10 µM, first compound 0.0316 µM",56.2%
same,"viability, T/C","second compound 10 µM, first compound 0.1 µM",47.6%
same,"viability, T/C","second compound 10 µM, first compound 0.316 µM",37.2%
same,"viability, T/C","second compound 10 µM, first compound 1 µM",43.6%
same,"viability, T/C","second compound 10 µM, first compound 3.16 µM",40.4%
same,"viability, T/C","second compound 10 µM, first compound 10 µM",31.1%
C=CC(=O)N1CCN(c2nc(=O)n(-c3c(C)ccnc3C(C)C)c3nc(-c4c(O)cccc4F)c(F)cc23)C(C)C1 (centres undefined) + CC(Nc1ccc2c(c1)OCCn1cc(N3C(=O)OCC3C(F)F)nc1-2)C(N)=O,IC50,second compound 0.00316 µM,> 10 µM
same,IC50,second compound 0.01 µM,> 10 µM
same,IC50,second compound 0.0316 µM,> 10 µM
same,IC50,second compound 0.1 µM,< 0.0316 µM
same,IC50,second compound 0.316 µM,< 0.0316 µM
same,IC50,second compound 1 µM,< 0.0316 µM
same,"viability, T/C","second compound 0.00316 µM, first compound 0.0316 µM",88.3%
same,"viability, T/C","second compound 0.00316 µM, first compound 0.1 µM",93.5%
same,"viability, T/C","second compound 0.00316 µM, first compound 0.316 µM",96.6%
same,"viability, T/C","second compound 0.00316 µM, first compound 1 µM",103%
same,"viability, T/C","second compound 0.00316 µM, first compound 3.16 µM",119%
same,"viability, T/C","second compound 0.00316 µM, first compound 10 µM",114%
same,"viability, T/C","second compound 0.01 µM, first compound 0.0316 µM",87%
same,"viability, T/C","second compound 0.01 µM, first compound 0.1 µM",81.7%
same,"viability, T/C","second compound 0.01 µM, first compound 0.316 µM",88.5%
same,"viability, T/C","second compound 0.01 µM, first compound 1 µM",81.7%
same,"viability, T/C","second compound 0.01 µM, first compound 3.16 µM",106%
same,"viability, T/C","second compound 0.01 µM, first compound 10 µM",98.8%
same,"viability, T/C",[1],60.2%
same,"viability, T/C",[2],63.4%
same,"viability, T/C",[3],67.5%
same,"viability, T/C",[4],67.2%
same,"viability, T/C",[5],72.1%
same,"viability, T/C",[6],82.3%
same,"viability, T/C",[7],43.7%
same,"viability, T/C",[8],47.3%
same,"viability, T/C",[9],43.3%
same,"viability, T/C",[10],49.1%
same,"viability, T/C",[11],54.4%
same,"viability, T/C",[12],48.4%
same,"viability, T/C",[13],31.6%
same,"viability, T/C",[14],32.8%
same,"viability, T/C",[15],33.8%
same,"viability, T/C",[16],33.4%
same,"viability, T/C",[17],37.7%
same,"viability, T/C",[18],33.5%
same,"viability, T/C",[19],26.7%
same,"viability, T/C",[20],27.5%
same,"viability, T/C",[21],29.5%
same,"viability, T/C",[22],26.7%
same,"viability, T/C",[23],30%
same,"viability, T/C",[24],27.2%
